Measurements: US9642821B2, “MiR-182 in the diagnosis and treatment of cancer” (Dana-Farber Cancer Institute, Inc., priority 2010, dated 2017)

What was measured:
Type in all cases: cell-based
HL60 and K562 cells = assay: TPA differentiation of blood cells, miR-182 qRT-PCR; conditions: TPA-treated blood cells
Procedure: (§1) HL60 cells (0.5×10^6 cells/ml) were differentiated either to neutrophils with 1.3% DMSO for 8 days or to macrophages with 16 nM tetradecanoyl phorbol acetate (TPA) for 3 days; K562 cells (0.5×10^6 cells/ml) to megakaryocytes with 16 nM phorbol myristate acetate (PMA) for 3 days or to erythrocytes with […] for 4 days. HL60 and K562 cells were grown in DMEM or RPMI-1640, respectively, supplemented with 10% (v/v) FBS. MCF-7 cells (10^6 cells/6 cm dish) were differentiated with 100 nM TPA for 3 days in Dulbecco's Modified Eagle Medium (DMEM) with 10% (v/v) fetal bovine serum (FBS) (Cunliffe et al., Cancer Res., 63:7158-66 (2003). The breast cancer lines and human mammary epithelial cells used in experiments shown in FIGS. 6 and 10, were cultured in media according to protocols from the American Type Culture Collection (ATCC®; Manassas, Va.) (www.atcc.org/).
Analysis of the miRNAs of the miR-183 cluster was conducted using qPCR using the TaqMan MicroRNA Assay from Applied Biosystems as per the manufacturer's instructions and normalized to RNU6B snRNA. Analysis of mRNA expression was carried out with qPCR using the SYBR Green master mix (Applied Biosystems, Foster City, Calif.) according to the manufacture's manual and the BioRad iCycler. […]

MCF7 cells = assay: TPA treatment of MCF7 cells, cell cycle analysis; conditions: breast cancer lines (MCF7), 100 nM TPA
Procedure: as §1
MCF-7 cells were differentiated with 100 nM TPA. At day 0, 1, 2, and 3 cells were collected, fixed with 70% cold ethanol and stored at −20° C. Permeabilized cells were centrifuged, washed once with PBS, and incubated for 30 minutes in propidium iodide (PI)/RNase Staining Buffer (BD Pharmingen, San Diego, Calif.) at 25° C. before flow cytometric analysis.

PARP = PARP activity assay (universal PARP chemiluminescent kit) in MDA-MB231 cells; conditions: MDA-MB231, increasing concentrations, 100 μM H2O2
Procedure: MDA-MB231 cells (2×10^6) were plated in 10-cm tissue culture dishes overnight in duplicates. The cells were exposed to the indicated concentrations of 4-Amino-1,8-naphthalimide in phosphate buffered saline (PBS) for 10 minutes on ice followed by 100 μM H2O2 for 20 minutes on ice. The cells were then washed thrice in ice cold PBS for 8-10 minutes and incubated in complete medium with the indicated concentrations of 4-Amino-1,8-naphthalimide at 37° C. The cells were then lysed and PARP activity was measured using the universal PARP chemiluminescent assay kit (Trevigen, Gaithersburg, Md.) as per the manufacturer's instructions.

BRCA1 transcript = assay: Immunoprecipitation of HA-AGO1/miRNA complex, qRT-PCR of bound transcripts, MDA-MB231; conditions: MDA-MB231, HA-AGO1 IP, normalized to 5S rRNA
Procedure: miR-182 cDNA and miR-17 cDNA was cloned from HL60 cDNA in pcDNA3.1-Puro expression vector (Invitrogen, Carlsbad, Calif.) using the following primers: […]
MDA-MB231 cells (0.5×10^6 cells) were co-transfected with 1 μg of HA-AGO1 (pIRES-FLAG/HA vector, Addgene) and 0.5 μg of expression vector for miR-182/miR-17 or miR-scr using Lipofectamine 2000. After 2 days cells were harvested using 400 μl lysis buffer (100 mM KCl, 5 mM MgCl2, 10 mM Hepes, pH 7.0, 0.5% Nonidet P-40) containing freshly added RNase inhibitor, RNaseOUT (Invitrogen, Carlsbad, Calif.) and Protease Inhibitor Cocktail (Roche, Basel, Switzerland). After centrifugation, a 50 μl aliquot of supernatant was taken as the input for subsequent RNA extraction. The remaining supernatant was gently shaken with HA-beads (HA-probe Santa Cruz sc-7392) for 4 h at 4° C. in spin columns (Pierce Spin Columns-Screw Cap). The columns were drained, washed and the retained beads were treated with 5 U DNaseI in NT2 buffer (50 mM Tris, pH7.4, 150 mM NaCl, 1 mM MgCl2, 0.05% Nonidet P-40) for 10 minutes at 37° C., washed with NT2 buffer and then treated with Proteinase K in NT2 buffer plus 1% SDS for 30 minutes at 55° C. […] RNA was reverse transcribed (see RNA isolation) and analyzed with qPCR for enrichment of mRNA of miR-182/miR-17 predicted targets.

BRCA1 = BRCA1 expression after ectopic miRNA overexpression in HL60 cells (immunoblot, qPCR); conditions: HL60 cells transiently transfected with expression vectors, Western blot
Procedure: Analysis of the miRNAs of the miR-183 cluster was conducted using qPCR using the TaqMan MicroRNA Assay from Applied Biosystems as per the manufacturer's instructions and normalized to RNU6B snRNA. Analysis of mRNA expression was carried out with qPCR using the SYBR Green master mix (Applied Biosystems, Foster City, Calif.) according to the manufacture's manual and the BioRad iCycler. The mRNA (1 μg) was reverse transcribed with 50 ng random primers using 100 U moloney murine leukemia virus (MMLV) reverse transcriptase (Epicentre, Madison, Wis.) according to the manufacturer's manual. Results were normalized to 5SrRNA or GAPDH.
In each experiment, where Western blot analysis was done, a fraction of 0.2−0.5×10^6 cells was taken out at day, 3 or 4, post-transfection. Breast cancer cell lines were collected from 6 well tissue culture plates (0.5-1×10^6 cells). Cells lysates were prepared in RIPA buffer (150 mM NaCl, 1% NP-40, 0.5% sodium deoxycholate, 0.1% SDS, 50 mM Tris, pH 8.0). Lysates of 0.1×10^6 cells of each sample plus loading buffer were loaded on 8% SDS-PAGE gels, semi-dry transferred on nitrocellulose membrane, and probed with anti-BRCA1 antibody at a 1:500 dilution (CALBIOCHEM, MS110) and anti-tubulin antibody at a 1:10,000 dilution (Sigma, Clone B-5-1-2).

“12-O-tetradecanoylphorbol-13-acetate [TPA]” was tested, and the miR-182 expression (HL60 and K562 cells) was “induces expression of miR-182” and the cell cycle state (MCF7 cells) was “leads to a post-mitotic state”.
With `Nc1ccc2c3c(cccc13)C(=O)NC2=O` [ANI, 4-Amino-1,8-naphthalimide] the PARP activity (PARP) was “PARP inhibition was confirmed” and the PARP activity (PARP; listed as 4-Amino-1,8-naphthalimide) was “inhibits PARP activity”.
“miR-17: another miRNA predicted to target BRCA1; expression vector [reference compound]” was tested, and the “association of miRNA/AGO1 complex with BRCA1 transcript” value (BRCA1 transcript) was “did not associate”.
With “miR-183: miRNA of cluster-183, co-expressed with miR-182; expression vector (GUAUGGCACUGGUAGAAUUCACUGU; listed as Homo sapiens) [reference compound]” the BRCA1 protein level (BRCA1) was “did not affect”.
